Values joined by “and” are separate entries in the source; they are usually repeats but may differ in a detail not shown here. Identical values can stand only once.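 Exposure lasted 48 hours, with cells grown in 96-well plates and compounds tested at five concentrations. GI50: concentration for 50% inhibition of growth. TGI is the concentration that stops growth completely.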

The record followed here is PubChem BioAssay (NCI).

Some test systems named below: SK-MEL-5 melanoma; IGROV1 ovarian; HCC-2998 colon; PC-3 prostate; CAKI-1 renal; 786-0 renal; MDA-MB-435; U251 CNS; OVCAR-3 ovarian; OVCAR-4 ovarian.
Experiment in all cases: NCI anticancer screen, dose series, 48 h

Consider `Cc1cc(C(=O)CSC(=S)SC(C)(C)C)ccc1Cl`, for which the TGI in the assay with SK-MEL-5 melanoma was 31.7 µM; with IGROV1 ovarian, more than 100 µM; in the assay with HCC-2998 colon, 30.3 µM; with PC-3 prostate, 95.8 µM; in the assay on CAKI-1 renal, more than 100 µM; in the assay with 786-0 renal, 74.4 µM. Further, the TGI with MDA-MB-435 is 91.1 µM; in the assay with U251 CNS it was 28.3 µM; in the assay with OVCAR-3 ovarian, 35.4 µM; in the assay with OVCAR-4 ovarian it was more than 100 µM.
Take `C=CC12CCN(CC1)C(C(O)c1ccnc3ccc(OC)cc13)C2` (stereo not given): the GI50 with SK-MEL-5 melanoma is 39.2 µM; with IGROV1 ovarian, more than 100 µM; in the assay with HCC-2998 colon, more than 100 µM; in the assay with PC-3 prostate, more than 100 µM; in the assay on CAKI-1 renal, more than 100 µM; in the assay on 786-0 renal, more than 100 µM. The GI50 in the assay with MDA-MB-435, in the assay with U251 CNS, in the assay on OVCAR-3 ovarian and with OVCAR-4 ovarian was more than 100 µM in each case. The TGI in the assay on SK-MEL-5 melanoma, in the assay on IGROV1 ovarian, in the assay with HCC-2998 colon, with PC-3 prostate, in the assay with CAKI-1 renal and in the assay on 786-0 renal was more than 100 µM throughout. Besides, the TGI in the assay on MDA-MB-435, with U251 CNS, in the assay with OVCAR-3 ovarian and in the assay on OVCAR-4 ovarian was more than 100 µM each time.
For `NC(=S)N/N=C/c1ncccc1O`, the GI50 in the assay with SK-MEL-5 melanoma was 2.04 µM and 1.26 µM; in the assay with IGROV1 ovarian it was 2.88 µM; in the assay on HCC-2998 colon, 3.08 µM; in the assay on PC-3 prostate, 0.895 µM; in the assay on CAKI-1 renal it was 2.59 µM; with 786-0 renal, 0.348 µM. Further, the GI50 is 1.33 µM with MDA-MB-435, 3.35 µM in the assay on U251 CNS, 2.77 µM in the assay with OVCAR-3 ovarian and 5.21 µM in the assay on OVCAR-4 ovarian. The TGI in the assay with SK-MEL-5 melanoma was 35.5 µM and 67.2 µM; with IGROV1 ovarian it was > 96.7 µM and 380 µM; in the assay with HCC-2998 colon it was > 42.3 µM and 166 µM; with PC-3 prostate, more than 1000 µM; in the assay on CAKI-1 renal it was > 56.7 µM and 63.9 µM; in the assay on 786-0 renal it was 20.3 µM and 8.34 µM. In addition, the TGI in the assay on MDA-MB-435 is more than 471 µM; in the assay with U251 CNS it was > 89.9 µM and 557 µM; in the assay with OVCAR-3 ovarian it was > 59.3 µM and 123 µM; in the assay on OVCAR-4 ovarian, more than 929 µM.
With `NC(=O)c1cc(I)ccc1NC(=O)/C=C/c1ccccc1`, the GI50 was 0.38 µM in the assay on SK-MEL-5 melanoma; 0.917 µM in the assay on IGROV1 ovarian; 1.38 µM with HCC-2998 colon; 0.605 µM with PC-3 prostate; 0.652 µM with CAKI-1 renal; 1.32 µM in the assay on 786-0 renal. Besides, the GI50 is 0.192 µM with MDA-MB-435, 0.504 µM with U251 CNS, 0.32 µM in the assay on OVCAR-3 ovarian and 1.84 µM in the assay on OVCAR-4 ovarian. Besides, the TGI is 12.5 µM in the assay on SK-MEL-5 melanoma; 19.9 µM in the assay on IGROV1 ovarian; 30.9 µM with HCC-2998 colon; more than 100 µM in the assay on PC-3 prostate; 24.8 µM in the assay with CAKI-1 renal; more than 68.1 µM in the assay on 786-0 renal. The TGI was determined as 0.445 µM with MDA-MB-435, 14.6 µM in the assay with U251 CNS, 1.01 µM with OVCAR-3 ovarian and 30.5 µM in the assay on OVCAR-4 ovarian.
As for `COc1cc2c(cc1OCCCN1CCN(CCCOc3cc4c(cc3OC)C(=O)N3CC(F)(F)C[C@H]3C=N4)CC1)N=C[C@@H]1CC(F)(F)CN1C2=O`, the GI50 in the assay with SK-MEL-5 melanoma is 1.86 µM; in the assay on IGROV1 ovarian it was 1.92 µM; in the assay on HCC-2998 colon, 5.4 µM; in the assay on PC-3 prostate, 3.06 µM; in the assay on CAKI-1 renal, 3.31 µM; in the assay on 786-0 renal, 3.17 µM. The GI50 in the assay with MDA-MB-435 is 2.94 µM; with U251 CNS it was 3.36 µM; in the assay on OVCAR-3 ovarian it was 3.55 µM; in the assay with OVCAR-4 ovarian, 12.7 µM. Also, the TGI with SK-MEL-5 melanoma amounted to 4.16 µM; in the assay on IGROV1 ovarian, 5.13 µM; with HCC-2998 colon, 19.4 µM; in the assay on PC-3 prostate it was 9.74 µM; in the assay on CAKI-1 renal it was 13.5 µM; with 786-0 renal it was 10.8 µM. For the same compound, the TGI was 11.1 µM in the assay on MDA-MB-435, 14.3 µM in the assay on U251 CNS, 10.6 µM in the assay on OVCAR-3 ovarian and 33.7 µM in the assay on OVCAR-4 ovarian.
Turning to `C[C@H](CCOc1cccc(CC(=O)O)c1)N(Cc1cccc(C(F)(F)F)c1Cl)CC(c1ccccc1)c1ccccc1`, the GI50 was 3.95 µM in the assay on SK-MEL-5 melanoma; 5.77 µM with IGROV1 ovarian; 5.15 µM with HCC-2998 colon; 4.64 µM in the assay on PC-3 prostate; 5.79 µM with CAKI-1 renal; 5.54 µM in the assay on 786-0 renal. Besides, the GI50 with MDA-MB-435 was 7.02 µM; in the assay on U251 CNS, 4.1 µM; with OVCAR-3 ovarian, 4.77 µM; with OVCAR-4 ovarian, 5.26 µM. The TGI with SK-MEL-5 melanoma turned out to be 14.6 µM; with IGROV1 ovarian, 19.4 µM; with HCC-2998 colon it was 18 µM; with PC-3 prostate it was 17.4 µM; with CAKI-1 renal, 18.2 µM; in the assay with 786-0 renal, 19.4 µM. Besides, the TGI with MDA-MB-435 was 20.2 µM; with U251 CNS it was 19.3 µM; with OVCAR-3 ovarian, 15.9 µM; with OVCAR-4 ovarian, 21.9 µM.
With `COC(=O)c1c(C)cc(OC)c(C/C=C(\C)CCCc2coc(C=C(C)C)c2)c1OC`, the TGI in the assay with SK-MEL-5 melanoma, in the assay on IGROV1 ovarian, in the assay with HCC-2998 colon, with PC-3 prostate, in the assay on CAKI-1 renal and in the assay on 786-0 renal was more than 100 µM in each case. Also, the TGI in the assay with MDA-MB-435, with U251 CNS, with OVCAR-3 ovarian and in the assay on OVCAR-4 ovarian was more than 100 µM each time.
As to `COc1ccc(Cl)cc1NC(=O)c1ccc(NC2=C(Cl)C(=O)N(Cc3ccccc3)C2=O)cc1`, the GI50 was 47.4 µM in the assay on SK-MEL-5 melanoma; more than 100 µM in the assay with IGROV1 ovarian; 14.1 µM in the assay with HCC-2998 colon; 52.6 µM in the assay with PC-3 prostate; more than 100 µM with CAKI-1 renal; more than 100 µM in the assay with 786-0 renal. The GI50 was 99.7 µM in the assay with MDA-MB-435, 28.3 µM with U251 CNS, 36.3 µM with OVCAR-3 ovarian and more than 100 µM with OVCAR-4 ovarian. Besides, the TGI in the assay on SK-MEL-5 melanoma was more than 100 µM; in the assay with IGROV1 ovarian it was more than 100 µM; in the assay with HCC-2998 colon it was 28.8 µM; in the assay with PC-3 prostate, more than 100 µM; in the assay with CAKI-1 renal, more than 100 µM; in the assay with 786-0 renal it was more than 100 µM. In addition, the TGI in the assay with MDA-MB-435, with U251 CNS, in the assay on OVCAR-3 ovarian and in the assay on OVCAR-4 ovarian was more than 100 µM throughout.
